How the values were obtained:
NRCMs [1] = assay: Lipid peroxidation by C11-bodipy 581/591 and flow cytometry
Description: (§1) For ROS assessment, cells were washed with PBS once and stained with 10μM H2DCFHDA (MCE) in phenol red-free DMEM (Procell) in a humid incubator with 5% CO2 at 37°C for 30 minutes. Cells were washed with PBS twice and dissociated to single cells before flow cytometry analysis at the FITC channel. For lipid peroxidation measurement, cells were washed with PBS once and stained with 2μM C11-bodipy^581/591 (Cayman) in phenol red-free DMEM (Procell) in a humid incubator with 5% CO2 at 37°C for 30 minutes. Cells were washed with PBS twice and dissociated to single cells before flow cytometry analysis at both the FITC and the PE channels. Fluorescence of the oxidized C11-bodipy were acquired through the FITC channel (Ex/Em=488/520nm) and that of the non-oxidized C11-bodipy through the PE channel (Ex/Em=555/624nm).

HELP hiPSC-CMs = assay: CardioExcyte 96 microelectrode array: base impedance and extracellular field potential; type: cell-based, human; settings: fixed doses: 10 µM, crizotinib and ponatinib 3.16 µM; up to 24 h
Description: HELP hiPSC-CMs were seeded evenly into the 96-well microelectrode array, NSP-96 0.6mm sensor plate (Nanion technologies), at 50,000 cells per well. Measurements were started after 3-5 days of culture of these cells and until the impedance and the extracellular field potential are stable. Measurements were taken a few times before drug addition, and every 30~60 minutes after the drugs were added at 2x concentration. Values were averaged from 3 wells per group. Beat rate, amplitude of impedance, base impedance and FPDc were calculated by the Cardio Excyte Control 96 software package (Nanion Technologies).

[2] = in vivo; cited from earlier work
Cor.4U hiPSC-CMs [3] = assay: ATP level (CellTiter-Glo) in hiPSC-CMs; type: cell-based, human
Description: ATP content was measured using the CellTiter-Glo Luminescent Cell Viability Assay (Promega) following the manufacturer’s protocol. After adding CellTiter-Glo reagents and incubation, luminescence was quantified using a Synergy H1 plate reader (BioTek Instruments). ATP standards were prepared from 0.01 to 5 μM. For each drug, we fitted a four-parameter log-logistic model to calculate ED50 at day 5 (Fig S1). To rank the cellular toxicity of the eight TKIs (Fig 1T), we calculated (EC50-Cmax)/(EC50+Cmax) and arranged from the smallest to the biggest for increasing cellular toxicity.

NRCMs [4] = assay: ROS by H2DCFDA staining and flow cytometry; settings: 3 h; 10 µM afatinib, 10 µM sorafenib, 5.62 µM ponatinib
Description: as §1

ER stress genes in NRCMs = assay: qRT-PCR of ER stress genes in NRCMs; type: cell-based, rat
Description: Rats were euthanized by decapitation and thoracic cavity was opened with scissors and hearts were popped out of the opening gently with fingers. Hearts were clipped and put in HBSS immediately; 20–40 hearts were collected into one sterile vial containing a magnetic stir bar and 1 mL digestive media made of 0.1% trypsin (Macklin) and 0.05% collagenase (Gibco) in HBSS. Hearts were minced until they were uniform in size. Digestive media was added to 10 mL for 40 hearts and stirred gently for 6 min. Supernatant was discarded and the digestion was repeated once; 10 mL digestive media was added and stirred gently for 10 min. The supernatant with cells were collected and the digestion and collection were repeated 4 times. Cells were centrifuged at 1200 rpm for 5 min, resuspended in media (Dulbecco’s modified Eagleʼs medium (Gibco)) with 10% fetal bovine serum (FBS; VISTECH), 1% penicillin–streptomycin, and 1% 0.1 M 5-bromo-2-deoxyuridine solution (Shanghai Yuanye) and filtered through a 40-μm cell strainer. Cells were seeded on a 100-mm plastic dish and cultured in a 5% CO2 incubator at 37 °C for 2 h to allow non-myocytes to adhere to the plate. The dish was swirled and media gently pipetted up and down to detach lightly attached cardiomyocytes. […] All drug treatments were performed after this media change.
RNA was isolated based on a standard protocol using TRIzol reagent (Vazyme). TRIzol (1ml per 1 well of a 6-well plate) was used to lyse cells and chloroform was added for RNA separation. Samples were shaked vigorously by hand for 15 seconds and incubated at room temperature for 2-3 minutes. RNA was present in the aqueous phase after centrifuge at 12000 x g for 15 minutes. Isopropyl alcohol was mixed to precipitate RNA from the aqueous phase. […] 1 μg total RNA was used for cDNA synthesis using a reverse transcription kit (Bioman). We then measured expression of genes of interest with SYBRR Green qPCR Mix (Bioman) using Applied Biosystems 7500 Quantitative PCR Instrument. Gene expression was normalized to the 18S ribosomal RNA expression and primers were listed in Primers Table.

patients = settings: ref Table S1, 2, 4, 26–36; cited from earlier work
NRCMs [5] = assay: Seahorse assay: oxygen consumption and extracellular acidification; type: cell-based, rat; settings: 24 h; fixed doses: 10 µM, crizotinib and ponatinib 3.16 µM
Description: Rats were euthanized by decapitation and thoracic cavity was opened with scissors and hearts were popped out of the opening gently with fingers. Hearts were clipped and put in HBSS immediately; 20–40 hearts were collected into one sterile vial containing a magnetic stir bar and 1 mL digestive media made of 0.1% trypsin (Macklin) and 0.05% collagenase (Gibco) in HBSS. Hearts were minced until they were uniform in size. Digestive media was added to 10 mL for 40 hearts and stirred gently for 6 min. Supernatant was discarded and the digestion was repeated once; 10 mL digestive media was added and stirred gently for 10 min. The supernatant with cells were collected and the digestion and collection were repeated 4 times. Cells were centrifuged at 1200 rpm for 5 min, resuspended in media (Dulbecco’s modified Eagleʼs medium (Gibco)) with 10% fetal bovine serum (FBS; VISTECH), 1% penicillin–streptomycin, and 1% 0.1 M 5-bromo-2-deoxyuridine solution (Shanghai Yuanye) and filtered through a 40-μm cell strainer. Cells were seeded on a 100-mm plastic dish and cultured in a 5% CO2 incubator at 37 °C for 2 h to allow non-myocytes to adhere to the plate. The dish was swirled and media gently pipetted up and down to detach lightly attached cardiomyocytes. The collected myocytes were seeded in the same media described before; 48 h after plating, medium was exchanged to fresh DMEM (Gibco) with or without 2% FBS. All drug treatments were performed after this media change.
NRCMs were seeded evenly into the Seahorse XF96 cell culture plates (Agilent) and cultured in DMEM high glucose with 2% FBS. About 2 hours before the test, cells were moved to a non-CO2 incubator at 37 ° C and incubated for 1 hour. 1 hour prior to the test, culture media was replaced with the Seahorse Basal DMEM at 37°C (with appropriate concentration of glucose, 4mM L-glutamine, 1 mM sodium pyruvate and 1% penicillin-streptomycin solution) and incubated in a non-CO2 incubator at 37°C for 1 hour. Drugs were prepared at 8x to 10x concentrations with the corresponding seahorse media as in each well and added into ports of Seahorse XF96 cartridge plates which have been hydrated overnight. XFe96 Extracellular Flux Analyzer (Agilent) was used to measure oxygen consumption rate and extracellular acidification rate of cells with different drug treatments.

NRCMs [6] = assay: Calcium staining with Calbryte 520 AM; type: cell-based, rat; settings: 0.5 and 1 h; 10 µM afatinib, 10 µM sorafenib, 5.62 µM ponatinib
[7] = tested on: Phospho-eIF2α, XBP1s, ATF6 (cleaved); assay: Western blot of ER stress effectors in NRCMs; type: cell-based, rat
Description: Cells were homogenized in the RIPA lysis buffer (Applygen) containing protease and phosphatase inhibitor cocktails (Bimake). The extract was spun at 12,000xg for 20min at 4°C. Total protein was measured by BCA (Thermofisher) and resolved by sodium dodecyl sulfate–polyacrylamide gel electrophoresis (SDS-PAGE). Proteins were blotted to polyvinylidene difluoride membranes (Amersham). Blots were blocked with non-fat milk (BBI Life Sciences) and incubated with antibodies against ATF6 (proteintech), phospho-eIF2α (ABclonol), XBP1 (ABclonol) and GAPDH (proteintech). Goat anti-rabbit IgG, goat anti-mouse IgG were incubated with the blots for 1 hour at room temperature. After 3 washes with 1xTBST (50 mM Tris-Cl, 150 mM NaCl, 0.1% Tween 20, pH 7.5), the blots were developed with the ECL Plus Kit (Absin). Relative protein expression was quantified by optical density and normalized to GAPDH.

Cor.4U hiPSC-CMs [8] = assay: 3'DGE-UMI RNAseq transcriptome of hiPSC-CMs; settings: high PC1 loadings; ponatinib at high dose
[9] = Sprague-Dawley, rat, 24 h, 10 µM

In the case of `CN(C)C/C=C/C(=O)Nc1cc2c(Nc3ccc(F)c(Cl)c3)ncnc2cc1O[C@H]1CCOC1` [afatinib], the “change in percent of cells with high lipid peroxidation” value (NRCMs [1]) is reported as “increased slightly”, the “level of lipid peroxidation, TKI alone” value (NRCMs [1]; [9]) is reported as 92.5% and the “level of lipid peroxidation, TKI with trolox” value (NRCMs [1]; [9]) is reported as 83%. For the same molecule, the “effect on beat rate, contraction, base impedance and corrected field potential duration” value (HELP hiPSC-CMs) was “reduced beat rate and corrected field potential duration”, the Cmax [2] was 50 nM and the “EC50 on cells relative to Cmax in vivo” value (Cor.4U hiPSC-CMs [3]) was ~ 60 folds. The “effect on ATP levels” value (Cor.4U hiPSC-CMs [3]; 0.32 to 10 µM, day 1 to day 5) was “dose-dependent and time-dependent reduction in ATP levels”, the “dose-dependent toxicity (ATP fold changes)” value (Cor.4U hiPSC-CMs [3]; day 1, different doses, RNAseq conditions) was “dose-dependent toxicity” and the “time-dependent toxicity (ATP fold changes)” value (Cor.4U hiPSC-CMs [3]; fixed dose over 5 days, RNAseq conditions) was “increasing toxicity with treatment duration”. For the same molecule, the “increase in percent of ROS-high cells” value (NRCMs [4]) was 14.1%, the “temporal activation of ER stress genes, 72 versus 24 h” value (ER stress genes in NRCMs; afatinib 5.62 µM, sorafenib 3.16 μM, ponatinib 1.78 μM) was “higher expression of Atf4, but a lower expression of Xbp1s and Atf6 at 72- than 24-h treatment” and the “relative activation of the three UPR branches” value (ER stress genes in NRCMs; high-dose treatment, 24 h) was “activated the ATF4 axis more robustly than the XBP1s and the ATF6 axes”. For the same molecule, the “level of cardiotoxicity based on literature reports” value (patients) was “low cardiotoxicity”, the “basal oxygen consumption rate (OCR)” value (NRCMs [5]) was “trend of inhibiting basal oxygen consumption rate (OCR)” and the cytosolic calcium concentration (NRCMs [6]) was “did not cause any significant changes in calcium concentration”. For the same molecule, the “duration of activated eIF2α phosphorylation” value [7] was 12 h, the “expression of genes associated with ER stress (ATF4, NUPR1, DDIT3, TRIB3, CHAC1, SESN2, HERPUD1)” value (Cor.4U hiPSC-CMs [8]) was “upregulated” and the “expression of genes related to cardiomyopathy and sarcomeric structure (MYH7, SYNPO2L, LDB3, ACTN2, MYLK3)” value (Cor.4U hiPSC-CMs [8]) was “downregulated”.

From paper PMC10108821, “Three tyrosine kinase inhibitors cause cardiotoxicity by inducing endoplasmic reticulum stress and inflammation in cardiomyocytes” (BMC Medicine, 2023)
